# “And” between values parts separate entries of the source, which are not always exact repeats. Equal values may be shown once. Read-outs that look alike come from different tables or passages of the source.
# Key:
# DHBV = assay: In vivo replication of DHBV in chronically infected Pekin ducks; serum viral DNA by slot blot hybridization
# Protocol: A sample of 9-0-methyloximinyl erythromycin A (EMO) in solution at a concentration of 100 mg/ml in dimethyl sulfoxide (DMSO) was administered subcutaneously at a dose of 15 mg/kg/day for 14 days to a group of 10-week old Pekin ducks chronically infected with DHBV (experimentally infected as described by Marion et al., "Liver Disease Associated with Duck Hepatitis B Virus Infection of Domestic Ducks", Proc. Natl. Acad. Sci. USA (1984) 81:898). Another group of 10-week old Pekin ducks were used as a control and treated with the same dose of DMSO alone. In vivo replication of virus was assessed by measuring levels of DHBV virus in the serum of infected animals before, during, and after treatment. Virus levels in serum were determined by quantitating the DNA of the virus by slot blot hybridization. Ten µl of each serum was made up to 0.1 M with NaOH to disrupt virus and denature the viral DNA. The samples were spotted on nylon membrane which binds single stranded DNA. The filter-bound viral DNA was detected by hybridization with a DHBV [³²P]- DNA probe followed by autoradiography. The quantity of viral DNA in each serum sample, expressed as picograms of viral DNA/ml serum, was determined by comparing densitometer tracings of the exposed area of film overlying each serum spot on the nylon membrane with a standard curve derived from densitometer tracings for known amounts of DHBV DNA similarly spotted on the same nylon membrane.
# EMO was administered beginning on day 8 for 14 days at the rate of 15 mg/kg/day. The low level was retained until day 22 (when EMO treatment was discontinued) thereafter the viral level began to climb and was followed to day 32, where the level reached about 650 picograms DHPV DNA/ml serum.
# Table 2 summarizes the results of treatment of four animals with erythromycin A 9-0-methyloxime (EMO) in DMSO and four animals with DMSO alone as determined on day 22 after termination of administration of the drug after 14 days. Virus was similarly found to be suppressed by EMO treatment in each animal and not by DMSO.
# HTLV III = assay: Inhibition of growth of HTLV III in infected T-cell line (VB) in tissue culture; culture medium assayed by reverse transcriptase and P-24 ELISA; assay type: cell-based; settings: HTLV III infected VB T-cells; for inhibition at 1 µg/mL: EMO 1 µg/ml; for inhibition at 5 µg/mL: EMO 5 µg/ml; for inhibition at 10 µg/mL: EMO 10 µg/ml; for inhibition at 20 µg/mL: EMO 20 µg/ml
# Protocol: A sample of 9-0-methyloximinyl erythromycin A (EMO) was tested for capacity to inhibit growth of HTLV III in tissue culture. A T-cell line (VB) was infected with HTLV III and infected cells were incubated with 0, 1, 5, 10 and 20 µgm EMO per ml of tissue culture medium. Culture medium was recovered after 0, 1, 2, 3, and 4 days of incubation and assayed for HTLV III production by reverse transcriptase and viral antigen (P-24) testing by ELISA.
# [1] = culture medium, read-out: % Reduction Reverse Transcriptase
# [2] = viral antigen by ELISA, read-out: % Reduction P-24
smiles,measurement,setting,value
"CCC1OC(=O)C(C)C(OC2CC(C)(OC)C(O)C(C)O2)C(C)C(OC2OC(C)CC(N(C)C)C2O)C(C)(O)CC(C)C(=NOC)C(C)C(O)C1(C)O (centres unmarked) [EMO, 9-0-methyloximinyl erythromycin A]",% Reduction in DHBV DNA In Serum After 14 Days Treatment,"DHBV; 15 mg/kgm/day in DMSO, subcutaneous, 14 days, individual ducks (Animal No. 1-4), determined on day 22",100% (2×) and 96% and 94%
same,picograms of DHPV DNA/ml serum,"DHBV; by day 12 (EMO 15 mg/kg/day from day 8 for 14 days; 900 at day 0, maximum 1500 by day 8), low level retained until day 22",below the level of detection
same,picograms of DHPV DNA/ml serum,"DHBV; day 32, 10 days after EMO treatment was discontinued (day 22)",about 650 picograms DHPV DNA/ml serum
same,inhibition at 1 µg/mL,HTLV III; [1],10%
same,inhibition at 1 µg/mL,HTLV III; [2],8%
same,inhibition at 5 µg/mL,HTLV III; [1],50%
same,inhibition at 5 µg/mL,HTLV III; [2],45%
same,inhibition at 10 µg/mL,HTLV III; [1],73%
same,inhibition at 10 µg/mL,HTLV III; [2],69%
same,inhibition at 20 µg/mL,HTLV III; [1],82%
same,inhibition at 20 µg/mL,HTLV III; [2],86%

# Source: patent publication EP0254534A2, “Erythromycin derivatives and compositions and use for inhibiting virus replication and disease” (Robinson, William S., priority 1986, dated 1988)
